SMILES strings stand for the structures. Like-named read-outs stand apart in the source and are kept apart here. Bounds are passed on as bounds.

For one data set, the system named is HPV-11. Description: Low risk HPV assay: HPV origin plasmid replication in HEK 293 cells (qPCR). Type of data set: cell-based, human papillomavirus. On the procedure: (§1) An origin-containing low risk or high risk HPV plasmid was co-transfected with homologous E1 and E2 protein expression vectors into HEK 293 cells. At 4 h post-transfection, cells were treated with test compound dilutions and then incubated for 48 h. HPV origin plasmid replication was detected after digestion with DpnI and exonuclease III to remove unreplicated transfected plasmids. Remaining replicated DNA was quantified by quantitative real time PCR (qPCR). In a parallel experiment in uninfected cells cytotoxicity was determined by trypan blue exclusion or CELLTITER-GLO® to find the concentration that reduced viable cell number by 50% (CC50). CC50 values were determined by trypan blue exclusion or CELLTITER-GLO® and the selectivity index calculated (Selectivity index=CC50/EC50). The low risk HPV tested was HPV-11, and the high-risk HPV tested was HPV-16 and HPV-18.

Data set [1] in a line: Cytotoxicity assay in HEK-293 cells (CELLTITER-GLO). Type of data set: cell-based. The settings on record: human; for CC50 at 2 d: Table 3, CELLTITER-GLO, 2 d incubation; for CC50 at 48 h: Table B, parallel to HPV-11 antiviral assay. On the procedure:
as §1
Cytotoxicity Assays in HEK-293 cells. Cytotoxicity assays are performed in concurrently with every antiviral assay using the same cell line and media to ensure the same compound exposure. For the antiviral studies against HPV11 in HEK-293 cells, transfected cells are seeded in duplicate plates. Following a 2 h exposure, compound dilutions are prepared in both the antiviral plate and the duplicate cytotoxicity plate. At 48 h following compound addition, CELLTITE-GLO® (Promega) is added to each well and luminescence is determined on a luminometer. Concentrations of compounds sufficient to reduce cell viability by 50% are calculated from the experimental data (CC50 values).
Background: ATP-based viability assays read luminescence as a measure of living cells.

A short description of data set [2]: Cytotoxicity assay in primary human foreskin fibroblast cells (CELLTITER-GLO). It counts as cell-based. The conditions noted are these: Table 3, CELLTITER-GLO, 7 d incubation. On the procedure:
Cytotoxicity Assays in Primary Human Foreskin Fibroblast Cells. Cytotoxicity was also evaluated in human foreskin fibroblast (HFF) cells as they are a highly sensitive indicator of toxicity in a standard assay with 7 d of compound exposure. A total of 4000 cells/well are seeded in 384-well plates in cell culture media containing 2% fetal bovine serum and antibiotics. Following a 24 h incubation, 5-fold compound dilutions are performed in duplicate wells directly in the plates containing monolayers of HFF cells. At 7 d following compound addition, CELLTITER-GLO® reagent is added to each well and resulting luminescence is measured on a luminometer to assess the number of viable cells in each well. Data are then used to calculate CC50 values.

Another data set deals with HPV-16 and HPV-18. In words: High risk HPV assay: HPV origin plasmid replication in HEK 293 cells (qPCR). Type of data set: cell-based, human papillomavirus. The conditions noted are these: read-out: EC50 High Risk. On the procedure:
as §1

[3] abbreviates: Human papillomavirus, HEK293, Antiviral activity against HPV-11 in HEK-293 cells, read-out: EC50.
The mark [4] stands for this setting: Human papillomavirus, HEK293, Antiviral activity against HPV-11 in HEK-293 cells, read-out: EC90.
Where [5] appears, read: primary human foreskin fibroblast (HFF) cells.
Setting [6] is: low risk HPV (HPV-11), HEK 293 cells, 48 h incubation, read-out: EC50 Low Risk.

Regarding `CCCCCCCCCCCCCCCCCCOCCOP(=O)(COCCn1cnc2c(=O)[nH]c(N)nc21)OCc1ccc(C)cc1` (stereo not drawn) [ODE-(4-Me-Bn)-PMEG], in the data set with HPV-11 (setting [3]), the concentration for a half-maximal effect (EC50) is 0.93 ± 0.91 µM. In addition, the EC90 in the data set with HPV-11 (setting [4]) is 7 ± 3.45 µM. Further, in data set [1] (HEK-293 cells), the half-maximal cytotoxic concentration (CC50) at 2 d came out at 32 ± 8.14 µM and half-maximal cytotoxicity (CC50 at 48 h) was put at 23.8 ± 19.5 µM. In data set [2] (setting [5]), the half-maximal cytotoxic concentration (CC50) at 7 d is 6.02 ± 3.79 µM.
For the compound `CCCCCCCCCCCCCCCCCCOCCOP(=O)(O)COCCn1cnc2c(=O)[nH]c(N)nc21` [ODE-PMEG, Octadecyloxyethyl-Phosphonomethoxyethylguanine, reference compound], the 50% effective concentration (EC50) was less than 0.3 µM in the data set with HPV-11 (setting [6]); less than 0.3 µM in the data set on HPV-16 and HPV-18 (high risk HPV (HPV-16 and HPV-18), HEK 293 cells, 48 h incubation).
For the compound `CCCCCCCCCCCCCCCCCCOCCOP(=O)(COCCn1cnc2c(=O)[nH]c(N)nc21)OCc1ccc(OC)c(Cl)c1` (stereo not drawn) [ODE-(3-Cl-4-OMe-Bn)-PMEG], the concentration giving a half-maximal response (EC50) in the data set with HPV-11 (setting [3]) was found to be 0.68 ± 0.62 µM. The EC90 with HPV-11 (setting [4]) came out at 1.34 ± 0.78 µM. In data set [1] (HEK-293 cells), this compound returned a CC50 at 2 d of 8.87 ± 1.2 µM and a half-maximal cytotoxic concentration (CC50) at 48 h of 8.31 ± 1.83 µM. In addition, half-maximal cytotoxicity in data set [2] (setting [5]) (CC50 at 7 d) was put at 2.27 ± 0.51 µM.
Take `CCCCCCCCCCCCCCCCCCOCCOP(=O)(COCCn1cnc2c(=O)[nH]c(N)nc21)OCc1cccc(F)c1` (stereo not drawn) [ODE-(3-F-Bn)-PMEG]: the half-maximal effective concentration (EC50) in the data set with HPV-11 (setting [3]) stood at 0.26 µM. Besides, the concentration for an effect of 90% (EC90) with HPV-11 (setting [4]) was 1.59 ± 0.57 µM. In addition, in data set [1] (HEK-293 cells), half-maximal cytotoxicity (CC50 at 2 d) was put at 2.16 ± 0.36 µM and the midpoint of cytotoxicity, the CC50 at 48 h, lay at 1.74 ± 0.03 µM. This compound also showed a CC50 at 7 d in data set [2] (setting [5]) of 6.88 ± 4.92 µM.
The like results for `Nc1ccn(C[C@@H](CO)OCP(=O)(O)O)c(=O)n1` [Cidofovir, cidofovir, reference compound] were, in that order, 41.7 ± 12 µM, greater than 300 µM, greater than 300 µM, greater than 300 µM and greater than 300 µM.
As to `Nc1nc2c(ncn2CCOCP(=O)(O)O)c(=O)[nH]1` [PMEG, 9-(2-phosphonylmethoxyethyl)guanine, reference compound], the EC50 in the data set on HPV-11 (setting [6]) was in the range of 3 to 30 µM.
`CCCCCCCCCCCCCCCCCCOCC(COP(=O)(O)COCCn1cnc2c(=O)[nH]c(N)nc21)OCc1ccccc1` (stereo not drawn) [ODBG-PMEG, 1-O-Octadecyl-2-O-benzyl-sn-glyceryl PMEG]: the 50% effective concentration (EC50) with HPV-11 (Human papillomavirus, HEK293, low risk HPV (HPV-11), HEK 293 cells, 48 h incubation, read-out: EC50 Low Risk) lay in the range of 0.3 to 3.09 µM; in the data set on HPV-16 and HPV-18 (Human papillomavirus, HEK293, 48 h), 0.3 to 3.09 µM.
On to `CCCCCCCCCCCCCCCCCCOCCOP(=O)(COCCn1cnc2c(=O)[nH]c(N)nc21)OCc1ccc(OC)c(F)c1` (stereo not drawn) [ODE-(3-F-4-OMe-Bn)-PMEG], for which the EC50 in the data set with HPV-11 (setting [3]) was found to be 0.18 ± 0.04 µM. Moreover, the concentration for an effect of 90% (EC90) with HPV-11 (setting [4]) amounted to 0.99 ± 0.13 µM. In data set [1] (HEK-293 cells), this compound registered a CC50 at 2 d of 13.1 ± 5.17 µM and a CC50 at 48 h of 14.2 ± 9.48 µM. In data set [2] (setting [5]), this compound gave a CC50 at 7 d of 1.72 ± 0.66 µM.
As for `CCCCCCCCCCCCCCCCCCOCCOP(=O)(COCCn1cnc2c(=O)[nH]c(N)nc21)OCc1cccc(Cl)c1` (stereo not drawn) [ODE-(3-Cl-Bn)-PMEG], in the data set with HPV-11 (setting [3]), the EC50 came to 0.22 ± 0.19 µM. Moreover, the 90% effect concentration (EC90) with HPV-11 (setting [4]) is greater than 0.4 µM. Besides, in data set [1] (HEK-293 cells), the cytotoxic concentration (CC50) at 2 d amounted to 1 ± 0.16 µM and it took 1.11 ± 0.27 µM to reach half-maximal cytotoxicity (CC50 at 48 h). In addition, half-maximal cytotoxicity in data set [2] (setting [5]) (CC50 at 7 d) was put at 4.65 ± 1.73 µM.
In the data set with HPV-11 (Human papillomavirus, HEK293), `CCOC(=O)[C@H](C)NP(=O)(COCCn1cnc2c(=O)[nH]c(N)nc21)Oc1ccccc1` (stereo partly drawn) [PMEG phenoxy amidate] returned a concentration giving a half-maximal response (EC50) of 7.56 ± 0.63 µM and an EC90 greater than 100 µM. In data set [1], the CC50 at 2 d was greater than 100 µM. Also, in data set [1] (HEK-293 cells), the CC50 at 48 h is greater than 100 µM. In data set [2] (read-out: CC50 HFF (7 d incubation)), the half-maximal cytotoxic concentration (CC50) at 7 d is 70.9 ± 4.07 µM.
For `CCOC(=O)[C@H](C)NP(=O)(COCCn1cnc2c(=O)[nH]c(N)nc21)N[C@@H](C)C(=O)OCC` [PMEG bisamidate, 9-[2-(bis-(ethyloxy-L-alaninyl)-phosphonomethoxy)ethyl]guanine], in the data set with HPV-11 (setting [3]), the EC50 amounted to 5.04 ± 7.01 µM. The concentration for an effect of 90% (EC90) with HPV-11 (setting [4]) was greater than 100 µM. In data set [1] (HEK-293 cells), this compound had a CC50 at 2 d greater than 100 µM and a half-maximal cytotoxic concentration (CC50) at 48 h greater than 100 µM. Besides, in data set [2] (setting [5]), the CC50 at 7 d is greater than 100 µM.

As usually defined, the EC50 is the concentration giving half of the maximal effect. As usually defined, the EC90 is the point of the concentration-response curve where the effect stands at 90%. As usually defined, the CC50 is the concentration that lowers cell viability or growth by half.
